Laboratory results reported in US20040063695A1, “Cystic fibrosis transmembrane conductance regulator protein inhibitors and uses thereof” (priority 2002, published 2004).
Entries after “also recorded” stand apart in the source; their conditions may differ. Read-outs that look alike come from different tables or passages of the source.

Columns and labels:
[1] = test system: FRT cells; assay: Cell toxicity by the dihydrorhodamine method; settings: after 24 hours, dihydrorhodamine assay
[2] = Animal toxicity in mice; format: in vivo
[3] = test system: cellular cAMP production; assay: Intracellular cAMP assay in FRT cells
[4] = test system: Calcium-sensitive Cl− channels; assay: UTP-stimulated Ca2+-dependent Cl− secretion, short-circuit current in human bronchial epithelial cells; format: cell-based
[5] = molecular target: T1, urea transporter (UT-B) (Homo sapiens, UniProt Q13336); assay: Additional specificity study: urea transporter; settings: 5 μM
T1 sequence (Q13336 1-389): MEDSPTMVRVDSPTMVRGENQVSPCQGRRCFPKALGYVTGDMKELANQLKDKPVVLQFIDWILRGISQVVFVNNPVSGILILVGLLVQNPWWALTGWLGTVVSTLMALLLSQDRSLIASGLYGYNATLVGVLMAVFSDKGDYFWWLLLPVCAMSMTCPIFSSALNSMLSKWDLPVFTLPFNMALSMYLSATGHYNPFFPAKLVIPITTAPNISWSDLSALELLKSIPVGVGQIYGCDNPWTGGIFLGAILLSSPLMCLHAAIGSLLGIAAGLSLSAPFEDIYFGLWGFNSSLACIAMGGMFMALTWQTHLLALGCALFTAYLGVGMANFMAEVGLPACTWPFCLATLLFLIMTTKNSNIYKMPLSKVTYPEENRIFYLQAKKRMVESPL

[6] = test system: phosphatase activity; assay: Phosphatase assay; settings: 5 μM
[7] = molecular target: MDR-1 (Homo sapiens, UniProt P08183)
Sequence of MDR-1 (P08183 whole entry): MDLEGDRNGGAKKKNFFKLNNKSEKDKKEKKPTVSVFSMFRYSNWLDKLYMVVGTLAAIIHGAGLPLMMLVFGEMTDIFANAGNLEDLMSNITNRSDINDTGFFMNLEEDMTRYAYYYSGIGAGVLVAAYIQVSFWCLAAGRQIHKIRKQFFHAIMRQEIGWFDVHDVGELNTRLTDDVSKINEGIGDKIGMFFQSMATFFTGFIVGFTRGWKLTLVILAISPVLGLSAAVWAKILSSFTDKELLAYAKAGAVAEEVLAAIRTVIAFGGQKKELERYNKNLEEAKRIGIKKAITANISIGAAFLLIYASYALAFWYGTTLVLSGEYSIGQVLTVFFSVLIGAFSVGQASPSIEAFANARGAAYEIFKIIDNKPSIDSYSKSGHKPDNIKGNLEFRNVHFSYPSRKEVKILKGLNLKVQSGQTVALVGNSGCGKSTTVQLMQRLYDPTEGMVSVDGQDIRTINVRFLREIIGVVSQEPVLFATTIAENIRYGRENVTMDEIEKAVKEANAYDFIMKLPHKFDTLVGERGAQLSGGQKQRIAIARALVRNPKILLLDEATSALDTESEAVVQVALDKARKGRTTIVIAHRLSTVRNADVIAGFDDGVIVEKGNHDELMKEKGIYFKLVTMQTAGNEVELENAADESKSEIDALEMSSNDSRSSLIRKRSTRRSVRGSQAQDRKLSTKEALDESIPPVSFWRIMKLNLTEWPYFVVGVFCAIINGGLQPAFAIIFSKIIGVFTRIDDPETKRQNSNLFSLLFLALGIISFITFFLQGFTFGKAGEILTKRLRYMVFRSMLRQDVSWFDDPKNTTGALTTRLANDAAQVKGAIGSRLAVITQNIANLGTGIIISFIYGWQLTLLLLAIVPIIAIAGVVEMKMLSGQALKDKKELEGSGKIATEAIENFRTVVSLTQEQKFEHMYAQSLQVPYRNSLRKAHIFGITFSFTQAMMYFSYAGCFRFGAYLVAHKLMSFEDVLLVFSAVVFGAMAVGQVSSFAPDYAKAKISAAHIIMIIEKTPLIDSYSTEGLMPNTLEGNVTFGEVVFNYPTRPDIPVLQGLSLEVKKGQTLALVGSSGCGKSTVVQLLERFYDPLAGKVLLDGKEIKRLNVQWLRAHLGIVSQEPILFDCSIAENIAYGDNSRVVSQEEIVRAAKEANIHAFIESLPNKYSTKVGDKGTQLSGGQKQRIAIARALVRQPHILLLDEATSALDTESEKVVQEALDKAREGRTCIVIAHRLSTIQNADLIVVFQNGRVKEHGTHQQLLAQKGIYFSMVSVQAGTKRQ

[8] = test system: cholera toxin-induced intestinal fluid secretion; set-up: species or system mice; settings: mouse, in vivo, ip
[9] = molecular target: T2, Na+/H+ exchanger (NEE3) (Homo sapiens, UniProt P48764); assay: Additional specificity study: Na+/H+ exchanger; settings: 5 μM
T2 sequence (P48764 26-834): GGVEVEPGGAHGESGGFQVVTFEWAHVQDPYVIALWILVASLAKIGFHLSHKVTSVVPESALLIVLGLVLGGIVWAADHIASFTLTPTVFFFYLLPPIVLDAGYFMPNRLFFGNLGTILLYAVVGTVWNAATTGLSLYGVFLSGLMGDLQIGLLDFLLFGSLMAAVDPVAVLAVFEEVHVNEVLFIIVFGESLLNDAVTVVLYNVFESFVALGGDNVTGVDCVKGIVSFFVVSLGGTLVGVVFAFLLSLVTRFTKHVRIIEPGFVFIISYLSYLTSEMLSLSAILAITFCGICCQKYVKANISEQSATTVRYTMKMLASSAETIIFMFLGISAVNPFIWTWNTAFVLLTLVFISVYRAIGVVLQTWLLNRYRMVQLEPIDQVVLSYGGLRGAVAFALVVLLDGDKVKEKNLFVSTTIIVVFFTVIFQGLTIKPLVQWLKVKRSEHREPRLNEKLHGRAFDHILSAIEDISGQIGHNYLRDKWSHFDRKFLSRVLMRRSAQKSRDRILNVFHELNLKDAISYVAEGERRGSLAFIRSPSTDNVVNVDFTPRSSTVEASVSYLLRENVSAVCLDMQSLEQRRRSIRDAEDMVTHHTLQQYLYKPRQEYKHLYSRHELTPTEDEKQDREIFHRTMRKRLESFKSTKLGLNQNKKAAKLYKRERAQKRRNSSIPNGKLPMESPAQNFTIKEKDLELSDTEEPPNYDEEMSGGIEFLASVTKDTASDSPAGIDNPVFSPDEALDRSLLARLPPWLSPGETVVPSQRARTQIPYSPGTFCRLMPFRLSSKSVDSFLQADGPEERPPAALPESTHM

[10] = molecular target: T3, water channel (AQP1) (Homo sapiens, UniProt P29972); assay: Additional specificity study: water channel; settings: 5 μM
T3 sequence (P29972 1-269): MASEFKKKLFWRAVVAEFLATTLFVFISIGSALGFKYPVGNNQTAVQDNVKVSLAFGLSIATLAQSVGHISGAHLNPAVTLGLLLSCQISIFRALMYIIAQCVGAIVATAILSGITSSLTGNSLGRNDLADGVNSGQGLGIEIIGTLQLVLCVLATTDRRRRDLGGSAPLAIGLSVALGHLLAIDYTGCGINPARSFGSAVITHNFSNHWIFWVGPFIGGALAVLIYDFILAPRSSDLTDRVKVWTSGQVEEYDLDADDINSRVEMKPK

[11] = test system: Volume-sensitive Cl− channels; assay: Volume-activated Cl− current, whole-cell patch clamp on FRT cells; format: cell-based, rat; settings: 5 μM; 250 mosM/kg hypotonic solution
Text: FIG. 4B is a graphical representation of volume-activated Cl^− current (hypotonic 250 mosM/kg H2O) measured in whole-cell patch clamp experiments on FRT cells.

[12] = molecular target: T4, CFTR Cl− channel (Rattus norvegicus, UniProt P34158); assay: Short-circuit current in isolated rat colonic mucosa; settings: amiloride, forskolin 20 μM
T4 construct: from tissue; host or cells: rat colon mucosa strips
T4 sequence (P34158 whole entry): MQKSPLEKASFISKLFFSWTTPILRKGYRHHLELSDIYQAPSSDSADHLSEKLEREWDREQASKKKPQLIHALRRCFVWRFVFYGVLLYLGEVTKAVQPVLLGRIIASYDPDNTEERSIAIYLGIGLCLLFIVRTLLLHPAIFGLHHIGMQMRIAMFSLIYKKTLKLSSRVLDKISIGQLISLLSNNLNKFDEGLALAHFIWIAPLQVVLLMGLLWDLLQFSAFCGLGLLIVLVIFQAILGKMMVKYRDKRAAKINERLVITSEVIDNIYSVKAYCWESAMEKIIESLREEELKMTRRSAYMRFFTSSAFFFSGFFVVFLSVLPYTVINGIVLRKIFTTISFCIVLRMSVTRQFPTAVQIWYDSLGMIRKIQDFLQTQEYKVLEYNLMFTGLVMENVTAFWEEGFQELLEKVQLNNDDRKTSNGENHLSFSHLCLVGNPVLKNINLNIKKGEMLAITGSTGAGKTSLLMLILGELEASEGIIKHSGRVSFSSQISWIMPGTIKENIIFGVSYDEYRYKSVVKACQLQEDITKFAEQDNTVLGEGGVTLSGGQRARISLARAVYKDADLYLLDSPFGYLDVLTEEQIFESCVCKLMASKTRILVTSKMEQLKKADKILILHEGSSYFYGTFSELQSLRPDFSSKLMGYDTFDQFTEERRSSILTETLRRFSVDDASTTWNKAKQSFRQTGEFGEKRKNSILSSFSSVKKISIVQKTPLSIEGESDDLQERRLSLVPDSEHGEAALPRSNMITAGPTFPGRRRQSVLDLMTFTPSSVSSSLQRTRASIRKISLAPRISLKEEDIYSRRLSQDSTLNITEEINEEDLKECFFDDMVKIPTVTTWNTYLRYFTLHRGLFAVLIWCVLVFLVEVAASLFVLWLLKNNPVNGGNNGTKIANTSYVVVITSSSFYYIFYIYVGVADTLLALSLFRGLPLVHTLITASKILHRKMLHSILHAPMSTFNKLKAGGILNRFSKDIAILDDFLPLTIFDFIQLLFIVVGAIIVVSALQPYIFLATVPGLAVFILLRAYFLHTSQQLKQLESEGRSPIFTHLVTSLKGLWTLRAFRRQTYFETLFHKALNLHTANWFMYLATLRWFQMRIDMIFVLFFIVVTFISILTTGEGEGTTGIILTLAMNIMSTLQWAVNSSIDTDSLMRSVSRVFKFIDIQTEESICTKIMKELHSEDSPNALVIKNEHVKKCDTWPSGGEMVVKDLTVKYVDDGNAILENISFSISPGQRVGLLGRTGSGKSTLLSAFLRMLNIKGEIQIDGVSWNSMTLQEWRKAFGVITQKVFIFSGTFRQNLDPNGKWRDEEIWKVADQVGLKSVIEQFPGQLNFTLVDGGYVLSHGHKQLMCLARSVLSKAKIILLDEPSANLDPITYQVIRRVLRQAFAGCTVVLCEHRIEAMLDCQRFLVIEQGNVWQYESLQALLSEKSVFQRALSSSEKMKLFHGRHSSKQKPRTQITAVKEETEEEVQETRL

[13] = molecular target: T5, Cl−/HCO3− exchanger (AEI) (Homo sapiens, UniProt P02730); assay: Additional specificity study: Cl−/HCO3− exchanger; settings: 5 μM
T5 sequence (P02730 1-911): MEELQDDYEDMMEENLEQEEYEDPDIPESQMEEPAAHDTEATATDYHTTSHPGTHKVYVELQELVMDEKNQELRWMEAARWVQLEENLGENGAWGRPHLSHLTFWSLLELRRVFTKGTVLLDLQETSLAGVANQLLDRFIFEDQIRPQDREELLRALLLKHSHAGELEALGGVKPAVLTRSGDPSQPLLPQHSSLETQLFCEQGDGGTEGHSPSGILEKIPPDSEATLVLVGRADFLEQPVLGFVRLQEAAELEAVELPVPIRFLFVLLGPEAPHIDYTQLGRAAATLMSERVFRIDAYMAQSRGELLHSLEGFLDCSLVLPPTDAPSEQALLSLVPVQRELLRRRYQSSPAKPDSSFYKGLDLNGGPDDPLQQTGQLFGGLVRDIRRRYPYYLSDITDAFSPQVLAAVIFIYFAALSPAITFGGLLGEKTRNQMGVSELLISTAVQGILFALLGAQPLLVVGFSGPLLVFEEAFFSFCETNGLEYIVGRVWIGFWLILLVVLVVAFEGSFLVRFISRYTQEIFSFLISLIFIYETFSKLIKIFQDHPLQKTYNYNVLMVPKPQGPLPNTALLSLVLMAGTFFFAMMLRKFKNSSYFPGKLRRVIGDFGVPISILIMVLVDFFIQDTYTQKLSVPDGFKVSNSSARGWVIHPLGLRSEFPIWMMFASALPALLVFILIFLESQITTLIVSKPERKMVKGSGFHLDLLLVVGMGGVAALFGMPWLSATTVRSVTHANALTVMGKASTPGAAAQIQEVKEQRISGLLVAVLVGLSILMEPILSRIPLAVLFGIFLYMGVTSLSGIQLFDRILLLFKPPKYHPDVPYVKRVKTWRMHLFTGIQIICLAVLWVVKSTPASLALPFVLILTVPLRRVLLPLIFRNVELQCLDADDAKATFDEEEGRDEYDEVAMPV

[14] = molecular target: T6, human wildtype CFTR (Homo sapiens, UniProt P13569); assay: YFP fluorescence assay of CFTR-mediated I− transport in FRT cells; format: cell-based; settings: relative to CFTRinh-172 = 1.0
T6 construct: expressed in transfected cells; host or cells: Fischer rat thyroid (FRT) cells, stably transfected, co-expressing YFP-H148Q

[15] = mice, intraperitoneal 1000 μg/kg daily for 7 days

For “3-[(3-trifluoromethyl)phenyl]-5-[(4-carboxyphenyl)methylene]-2-thioxo-4-thiazolidinone [CFTRinh-172]”, the “concentrations non-toxic to FRT cells” value [1] was “up to 100 μM”, the “food and water intake” value [2, 15] was “not diminished” and the overt toxicity [2, 15] was “did not cause overt toxicity”. The “serum electrolyte concentrations, glucose, liver function indices, serum creatinine, amylase and hematocrit” value [2, 15] was “not changed”, the overt toxicity ([2]; single systemic dose 10 mg/kg) was “did not cause overt toxicity” and the “effect on cellular cAMP production” value ([3]; 5 μM) was “did not affect”. The cAMP content ([3]; 30 min after 20 μM forskolin, + inhibitor (n=3)) was 1140±50 fmol/well, the “effect on Ca2+ activated Cl− secretion” value ([4]; 5 μM, UTP 100 μM apical) was “did not inhibit” and the “maximal UTP-dependent short-circuit current” value ([4]; in the presence of 5 μM inhibitor (SE, n=4)) was 10.0±0.2 μA/cm^2. The “block of urea transporter (UT-B)” value [5] was “did not block”, the “effect on phosphatase activity” value [6] was “did not affect” and the vincristine accumulation ([7]; 5 μM) was “did not affect vincristine accumulation”. For the same compound, the “fluid accumulation in cholera toxin-treated ileal loops” value [8] was “effectively prevented fluid accumulation; also recorded: significantly reduced fluid secretion to that in saline control loops”, the “block of Na+/H+ exchanger (NEE3)” value [9] was “did not block” and the “block of water channel (AQP1)” value [10] was “did not block”. For the same compound, the “effect on volume-activated Cl− currents” value [11] was “did not block”, the “reduction of short-circuit current” value ([12]; 5 μM in mucosal solution alone) was > 80% and the “efficacy of short-circuit current inhibition, mucosal vs. serosal addition” value [12] was “greater efficacy”. The “block of Cl−/HCO3− exchanger (AEI)” value [13] was “did not block”.

In the case of `O=C(O)c1ccccc1C=C1SC(=S)N(c2ccccc2C(F)(F)F)C1=O` [2, 3, 3-[(a-trifluoromethyl)phenyl]-5-[(b-carboxyphenyl)methylene]-2-thioxo-4-thiazolidinone], the “relative potency (CFTR inhibitory activity)” value [14] is reported as 0.70.

For `O=C(O)c1ccccc1C=C1SC(=S)N(c2ccccc2C(F)(F)F)C1=O` [2, 4, 3-[(a-trifluoromethyl)phenyl]-5-[(b-carboxyphenyl)methylene]-2-thioxo-4-thiazolidinone], the “relative potency (CFTR inhibitory activity)” value [14] was 0.66.

With `O=C(O)c1ccccc1C=C1SC(=S)N(c2ccccc2C(F)(F)F)C1=O` [3, 2, 3-[(a-trifluoromethyl)phenyl]-5-[(b-carboxyphenyl)methylene]-2-thioxo-4-thiazolidinone] the “relative potency (CFTR inhibitory activity)” value [14] was 0.74.

In the case of `O=C(O)c1ccccc1C=C1SC(=S)N(c2ccccc2C(F)(F)F)C1=O` [3, 3, 3-[(a-trifluoromethyl)phenyl]-5-[(b-carboxyphenyl)methylene]-2-thioxo-4-thiazolidinone], the “relative potency (CFTR inhibitory activity)” value [14] is reported as 0.90.

In the case of `O=C(O)c1ccccc1C=C1SC(=S)N(c2ccccc2C(F)(F)F)C1=O` [4, 2, 3-[(a-trifluoromethyl)phenyl]-5-[(b-carboxyphenyl)methylene]-2-thioxo-4-thiazolidinone], the “relative potency (CFTR inhibitory activity)” value [14] is reported as 0.67.

For `O=C(O)c1ccccc1C=C1SC(=S)N(c2ccccc2C(F)(F)F)C1=O` [4, 3, 3-[(a-trifluoromethyl)phenyl]-5-[(b-carboxyphenyl)methylene]-2-thioxo-4-thiazolidinone], the “relative potency (CFTR inhibitory activity)” value [14] was 0.64.

In the case of `O=C(O)c1ccccc1C=C1SC(=S)N(c2ccccc2C(F)(F)F)C1=O` [4, 4, 3-[(a-trifluoromethyl)phenyl]-5-[(b-carboxyphenyl)methylene]-2-thioxo-4-thiazolidinone], the “relative potency (CFTR inhibitory activity)” value [14] is reported as 0.56.

In the case of `O=C(O)Oc1ccc(/C=C2\SC(=O)N(c3cccc(C(F)(F)F)c3)C2=S)cc1` [CFTRinh-029, 3-[(3-trifluoromethyl)phenyl]-5-[(4-oxycarboxyphenyl)methylene]-2-thioxo-4-thiazolidinone], the “relative potency (CFTR inhibitory activity)” value [14] is reported as 0.3.

For `O=C1S/C(=C\c2ccc(O)c(O)c2)C(=S)N1c1cccc(C(F)(F)F)c1` [CFTRinh-185, 3-[(3-trifluoromethyl)phenyl]-5-[(3,4-dihydroxyphenyl)methylene]-2-thioxo-4-thiazolidinone], the “relative potency (CFTR inhibitory activity)” value [14] was 0.2.

With `O=C(O)c1ccccc1C=C1SC(=S)N(c2ccccc2C(F)(F)F)C1=O` [a=2, b=2, 3-[(a-trifluoromethyl)phenyl]-5-[(b-carboxyphenyl)methylene]-2-thioxo-4-thiazolidinone] the “relative potency (CFTR inhibitory activity)” value [14] was 0.69.

In the case of `COc1ccc(CCN(C)CCCC(C#N)(c2ccc(OC)c(OC)c2)C(C)C)cc1OC` (stereo not drawn) [verapamil, reference compound], the vincristine accumulation ([7]; 100 μM) is reported as “strongly increased”.
